This is an account of results in EP1952812A1, “Drug for treating thalessemia, falciform anemia and all other forms of anemia treatable therewith” (Universita' Degli Studi di Ferrara, priority 2007, dated 2008).

One data set concerns K562 human cell line. In words: Erythroid differentiation of K562 cells (benzidine positivity), with or without UVA photoactivation. The settings on record: percentage of K562 cells positive to benzidine. It counts as cell-based. Here is the method: The evaluation of the biological activity of the treatment with psoralens photoactivated with UVA light was conducted by examining the capacity of these molecules to modulate the gamma-globin gene expression in the K562 human cell line, which is able to differentiate in the erythroid sense by expressing the gamma-globin genes if subjected to treatment with biological response modifiers suitable for the purpose (Lampronti I., Bianchi N Borgatti M., Fibach E.,Prus E.,Gambari R. Eur J Haematology 71 189-195 2003, Bianchi N, Ongaro F, Chiarabelli C, Gualandi L, Mischiati C, Bergamini P, Gambari R. Biochem Pharmacol, 60:31-40, 2000;Bianchi N, Osti F, Rutigliano C, Ginanni Corradini F, Borsetti E, Tomassetti M, Mischiati C, Feriotto G and Gambari R, British Journal of Haematology, 104:258-263, 1999).
The differentiation level was evaluated by analyzing the cell positivity to benzidine (Lampronti I., Bianchi N., Borgatti M., Fibach E., Prus E., Gambari R. Eur J Haematology 71 189-195 2003,).
The gamma-globin coding gene expression was evaluated by quantitative RT-PCR (reverse transcriptase PCR) (Lampronti I., Bianchi N Borgatti M., Fibach E.,Prus E.,Gambari R. Eur J Haematology. 71 189-195 2003) Some of the data obtained are reported in Table 1. As can be easily noted, treatment with different furocoumarin derivatives photoactivated with UVA light are able to induce an increase in the percentage of cells positive to benzidine (60-85% of the treated cells, compared with 5-17% of the K562 control cells treated with furocoumarin derivatives in the absence of UVA light). […] In the control not treated with furocoumarin derivatives, erythrolid differentiation is low (4-6%) both in the absence and in the presence of UVA light.

The test system of another data set is gamma-globin mRNA. The data set can be described thus: gamma-globin mRNA production by quantitative RT-PCR in human erythroid precursors isolated from peripheral blood (two-step Fibach culture). Type of data set: cell-based. The note with it: for gamma-globulin mRNA: ratio of mRNA content in UVA-treated cells to that of UVA-untreated cells, cells treated for 6 days. An excerpt: To verify if treatment with 8-meethoxypsoralen and trimethylangelicin photoactivated with UVA light was able to stimulate mRNA production for gamma-globin in human erythroid precursors isolated from peripheral blood, the method used was that described by Fibach et al. (Fibach E. Hemoglobin, 22: 445-458, 1998; Fibach E, Burke KP, Schechter AN, Noguchi CT & Rodgers GP. Blood, 81: 1630-1635, 1993). This method comprises two steps: the cells isolated from peripheral blood of a healthy subject or affected with a hemopoietic pathology, such as falciform anemia or beta-thalessemia, are seeded in culture medium to which 10% of conditioned medium deriving from the bladder carcinoma cell line 5637 is added. The second step consists of cultivating the isolated cells in a suitable culture medium to which erythropoietin hormone, 30% of bovine fetal serum, 2-mercapto-ethanol, albumin, glutamine and desametasone are added to enable proliferation and maturing of erythroid stem cells. In this step the cells can be treated with potential HbF inducers.
The gamma-globin mRNA production level is much higher than that encountered using hydroxyurea as inducer (Fibach E. Hemoglobin, 22: 445-458, 1998; Fibach E, Burke KP, Schechter AN, Noguchi CT & Rodgers GP. Blood, 81: 1630-1635, 1993).

Setting [1] is: Homo sapiens, light or radiation study, 144 h, read-out: gamma-globin mRNA.

In the case of `COc1c2occc2cc2ccc(=O)oc12` [Compound 8-MOP, 8-methoxypsoralen, reference compound], in the data set on K562 human cell line (concentration 0.25 µM), the “Erythroid differentiation with UVA (%)” value is 65% and the “Erythroid differentiation without UVA (%)” value stood at 17%. Moreover, in the data set on gamma-globin mRNA (setting [1]), the fold induction at 0.25 µM stood at 2.76 and the fold induction at 1 µM was found to be 18.5.
As for `O=c1ccc2ccc3occc3c2o1` [angelicin], in the data set with K562 human cell line (concentration 0.50 µM), the “Erythroid differentiation with UVA (%)” value was 60% and the “Erythroid differentiation without UVA (%)” value is 6%.
In the case of `Cc1cc(=O)oc2c1cc(C)c1occ(C)c12` [trimethylangelicin], in the data set with K562 human cell line (concentration 0.50 µM), the “Erythroid differentiation with UVA (%)” value is listed as 85% and the “Erythroid differentiation without UVA (%)” value amounted to 5%. In addition, the “gamma-globulin mRNA” value in the data set on gamma-globin mRNA (concentration 0.10 µM) is 9.56. Moreover, the “gamma-globulin mRNA” value with gamma-globin mRNA (concentration 0.50 µM) worked out at 12.86.
